Assay results taken from US9901536B2, “Composition for improving skin, containing pomegranate concentrate as active ingredient” (HLSCIENCE CO., LTD., priority 2014, dated 2018).
“And” between values parts separate entries of the source, which are not always exact repeats. Identical values can stand only once.

Legend:
MMP-1 = assay: Inhibition of UV-induced MMP-1 expression in HDF-N cells; assay type: cell-based, human; details: UVA 5 J/cm^2, 1 μM
Experimental: (§1) For testing of wrinkle improvement, normal human primary dermal fibroblasts, neonatal (HDF-N) derived from the human neonatal foreskin were used. The cells were seeded onto the bottom of a culture dish and cultured at 37° C. in a 5% carbon dioxide incubator after adding the fibroblast basal medium (FBM, Lonza, CC-3131) containing 0.1% insulin, 0.1% rhFGF, 0.1% gentamicin and 2% FBS.
The effect of the test solution on UV-induced MMP-1 expression was evaluated in order to evaluate the wrinkle-improving effect of the sample by measuring the activity of matrix metalloproteinase (MMP-1) by immuno-ELISA assay. HDF-N cells were seeded onto a 24-well plate with 2×10^4 cells/well and then cultured for 24 hours. 24 hours later, after discarding the medium and washing with DPBS, 200 μL of DPBS was added and 5 J/cm^2 of UV-A was irradiated. After treating the cells with the sample diluted to an adequate concentration, the cells were cultured for 24 hours. Then, the culture medium was taken and the quantity of MMP-1 was measured with the human total MMP-1 ELISA kit (R&D Systems, DY901). The measured quantity of MMP-1 was calibrated with the total protein quantity.

[1] = system: procollagen synthesis in HDF-N cells; assay: Procollagen synthesis (PIP EIA) in HDF-N cells; assay type: cell-based, human; details: 10 ng/ml, 24 h
Experimental: as §1
In order to measure the effect of promoting procollagen synthesis of the test solution, HDF-N cells were seeded onto a 48-well plate with 1×10^4 cells/well and then cultured for 24 hours. Then, after maintaining a starvation state for 24 hours, the cells were treated with the test solution diluted with the cell culture medium FBM (without supplements) at different concentrations and then cultured for 24 hours. The cultured cells were recovered and the quantity of procollagen was measured using the procollagen type I c-peptide (PIP) EIA kit (Takara, MK101). The cells adherent to the bottom were washed with PBS and lysed with 1 N NaOH to determine the total amount of proteins. Then, the quantity of procollagen per given quantity of proteins was calculated.

[2] = system: melanin synthesis in Melan-a cells; assay: Inhibition of melanin synthesis in Melan-a cells; assay type: cell-based, mouse; details: 100 μM, 6 days
Experimental: For evaluation of skin-whitening effect, Melan-a cells derived from C57BL/6J (black, a/a) mouse, provided by Dr. Dorothy C Benette (St George's Hospital, London, UK), were used as an immortalized cell line (Bennett D C, Cooper P J, Hart I R. A line of non-tumorigenic mouse melanocyte, syngeneic with the B16 melanoma and requiring a tumor promoter for growth. Int J Cancer 1987; 39: 414-418). The cells were cultured at 37° C. in a 5% carbon dioxide incubator after adding the RPMI 1640 medium containing 10% fetal bovine serum, 50 U/mL penicillin, 50 μg/mL streptomycin, 200 nM phorbol 12-myristate 13-acetate (PMA).
Melan-a cells were seeded onto a 24-well plate with 3×10^4 cells/well. After culturing the cells in an incubator for 24 hours so that the cells adhered well to the plate, the test solution diluted with a culture medium to different concentrations were added to the respective wells. The test sample was treated once in 3 days, for a total of 6 days. […] The cells were lysed with 1 N NaOH and then centrifuged. After separating the supernatant, the total amount of proteins was quantified by measuring absorbance at 405 nm. The melanin content was determined from the protein quantity.

[3] = system: hyaluronan synthesis in HaCaT cells; assay: Hyaluronan synthesis in keratinocytes by ELISA; assay type: cell-based, human; details: 20 mM, 24 h
Experimental: Human keratinocytes (HaCaT cells, ATCC) were seeded onto the bottom of a culture dish and cultured at 37° C. in a 5% carbon dioxide incubator after adding Dulbecco's modified Eagle's medium (DMEM, Welgene, Korea) containing penicillin (100 IU/mL), streptomycin (10 μg/mL) and 10% FBS.
The skin-moisturizing effect of the samples was evaluated by measuring the degree of hyaluronan synthesis in keratinocytes by ELISA. For this, the HaCaT cells were seeded onto a plate at 5×10^4 cells/well and cultured for 24 hours. 24 hours later, the cells were treated with the test samples diluted with the DMEM cell culture medium (without supplements) and cultured for 24 hours. The cultured cells were recovered and the quantity of hyaluronan was measured by hyaluronan ELISA (R&D Systems, DY3614). The cells adherent to the bottom were washed with PBS and lysed with 1 N NaOH to determine the total amount of proteins. Then, the quantity of hyaluronan per given quantity of proteins was calculated.
The protein quantity was measured using a Bio-Rad DC protein kit according to the Lowry method.

elastase = assay: Elastase inhibition assay; assay type: biochemical, human; details: 10 μM
Experimental: The HDF-N fibroblasts were used to measure the effect of the test solution on elastase activity. For this, the cultured HDF-N cells were treated with 0.2 M Tris-HCl (pH 8.0) containing 0.1% Triton X-100 and lysed by sonication. After centrifuging at 3,000 rpm for 20 minutes and taking the supernatant, the activity of the enzyme was measured by quantifying it and the total protein quantity. For measurement of the elastase activity, the homogenized fibroblasts were treated with 200 μg/mL elastase, 0.2 M Tris-HCl buffer and the sample at different concentrations. After adding 50 mM STANA, a substrate specific for elastase, and incubating at 37° C., absorbance was measured at 405 nm. The degree of elastase activity inhibition was compared with a control group not treated with the test solution. Phosphoramidon was used as a positive control group.

CC1=C(/C=C/C(C)=C/C=C/C(C)=C/C(=O)O)C(C)(C)CCC1 [Retinoic acid]
MMP-1 production, % UV− (MMP-1): 171.68 ± 10.422 % UV− | MMP-1 production, % UV− (MMP-1; listed as retinoic acid): 171.6 % UV−

Transforming growth factor-β [TGF-β]
procollagen production, % control [1]: 150.8 % control and 150.88 ± 5.366 % control

OC[C@H]1O[C@@H](Oc2ccc(O)cc2)[C@H](O)[C@@H](O)[C@@H]1O [Arbutin]
melanin content, % control [2]: 73.54 ± 5.397 % control | melanin content, % control ([2]; listed as arbutin): melanin synthesis was inhibited

CC(=O)N[C@H]1C(O)O[C@H](CO)[C@@H](O)[C@@H]1O (stereo partly drawn) [NAG, N-Acetyl-D-glucosamine]
hyaluronan, % control [3]: 224.8 % control and 224.85 ± 16.937 % control

CC(C)C[C@H](NP(=O)(O)O[C@@H]1O[C@@H](C)[C@H](O)[C@@H](O)[C@H]1O)C(=O)N[C@@H](Cc1c[nH]c2ccccc12)C(=O)O [Phosphoramidon]
elastase activity, % control (elastase): 74.90 ± 5.962 % control | elastase activity, % control (elastase; listed as phosphoramidon): 74.9 % control
